Results on 2 compounds are retold here after US7939519B2, “Immunosuppresant compounds and compositions” (Novartis AG, priority 2003, dated 2011).

One experiment concerns the target T1, human EDG-1 (S1P1) (Homo sapiens, UniProt P21453).
T1 construct: expressed in transfected cells
Nature of the experiment: GTP [γ-35S] binding assay, membranes from CHO cells expressing human EDG-1. In kind it is biochemical. Particulars: EDG-1 GTP [γ-35S] binding, CHO cell membranes. The protocol:
A. In Vitro: GPCR Activation Assay Measuring GTP [γ-^35S] Binding to Membranes Prepared from Cho Cells Expressing Human EDG Receptors
EDG-1 (S1P1) GTP [γ-^35S] binding assay: Homogenized membranes are prepared from CHO cell clones stably expressing a human EDG-1 N-terminal c-myc tag. Cells are grown in suspension in two 850 cm^2 roller bottles for three or fours days before harvesting. The cells are centrifuged down, washed once with cold PBS, and resuspended in ≦20 ml of Buffer A (20 mM HEPES, pH 7.4, 10 mM EDTA, EDTA-free complete protease inhibitor cocktail [1 tablet/25 ml]). The cell suspension is homogenized on ice, using a Polytron homogenizer at 30000 rpm at three intervals of 15 seconds each. The homogenate is first centrifuged at 2000 rpm on a tabletop low speed centrifuge for 10 minutes. The supernatant, after passing through a cell strainer, is then re-centrifuged at 50,000×g for 25 minutes at 4° C. The pellet is resuspended into buffer B (15% glycerol, 20 mM HEPES, pH 7.4, 0.1 mM EDTA, EDTA-free complete protease inhibitor cocktail [1 tablet/10 ml]). Protein concentration of the prep is determined using the BCA Protein Assay kit (Pierce) using BSA as standard. The membranes are aliquoted and kept frozen at −80° C.
Solutions of test compounds ranging from 10 mM to 0.01 nM are prepared in DMSO. S1P is diluted in 4% BSA solution as positive controls. […]

In a further experiment the test system is blood lymphocytes. As to the kind of experiment: Measurement of circulating lymphocytes (blood lymphocyte depletion) in mice. In kind it is in vivo, Mice (C57bl/6). Particulars: Mus musculus, oral gavage, blood collected 6 and 24 hours after administration, read-out: ED50, effective dose required displaying 50% of blood lymphocyte depletion. The protocol:
C. In Vivo: Screening Assays for Measurement of Blood Lymphocyte Depletion and Assessment of Heart Effect
Measurement of circulating lymphocytes: Compounds are dissolved in DMSO and diluted to obtain a final concentration of 4% DMSO (v/v, final concentration) and then further diluted in a constant volume of Tween80 25%/H2O, v/v. Tween80 25%/H2O (200 μl), 4% DMSO, and FTY720 (10 μg) are included as negative and positive controls, respectively. Mice (C57bl/6 male, 6-10 week-old) are administered 250-300 μL of compound solution orally by gavages under short isoflurane anesthesia.
Blood is collected from the retro-orbital sinus 6 and 24 hours after drug administration under short isoflurane anesthesia. Whole blood samples are subjected to hematology analysis. Peripheral lymphocyte counts are determined using an automated analyzer. Subpopulations of peripheral blood lymphocytes are stained by fluorochrome-conjugated specific antibodies and analyzed using a fluorescent activating cell sorter (Facscalibur). Two mice are used to assess the lymphocyte depletion activity of each compound screened. The result is an ED50, which is defined as the effective dose required displaying 50% of blood lymphocyte depletion.

Each structure is given as a SMILES string. pEC50: −log10 of the molar value.

T1 sequence (P21453 whole entry): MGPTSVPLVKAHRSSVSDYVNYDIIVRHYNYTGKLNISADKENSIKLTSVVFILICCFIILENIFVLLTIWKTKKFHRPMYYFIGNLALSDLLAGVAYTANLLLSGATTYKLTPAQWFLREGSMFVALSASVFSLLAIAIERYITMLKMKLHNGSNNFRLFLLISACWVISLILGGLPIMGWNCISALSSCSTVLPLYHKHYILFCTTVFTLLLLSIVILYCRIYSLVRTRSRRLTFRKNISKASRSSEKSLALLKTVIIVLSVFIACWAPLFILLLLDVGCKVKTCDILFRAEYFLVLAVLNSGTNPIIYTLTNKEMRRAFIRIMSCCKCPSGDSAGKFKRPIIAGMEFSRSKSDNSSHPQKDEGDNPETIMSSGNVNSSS

As to `CCc1cc(/C(C)=N/OCc2ccc(C3CCCCC3)c(C(F)(F)F)c2)ccc1CNCCC(=O)O` [Example 2, 3-{4-[1-(4-Cyclohexyl-3-trifluoromethyl-benzyloxyimino)-ethyl]-2-ethyl-benzylamino}-propionic acid], the pEC50 (in general, the EC50 on a negative log10 scale, so that one unit is a factor of ten) on human EDG-1 (S1P1) is 9.10. In addition, in the experiment with blood lymphocytes, the ED50 (commonly the dose at which the effect has come halfway, by size or by number of responders) was found to be 0.07 mg/kg.
The corresponding values for `CCc1cc(/C(C)=N/OCc2ccc(C3CCCCC3)c(C(F)(F)F)c2)ccc1CN1CC(C(=O)O)C1` [Example 3, 1-{4-[1-(4-Cyclohexyl-3-trifluoromethyl-benzyloxyimino)-ethyl]-2-ethyl-benzyl}-azetidine-3-carboxylic acid] are 9.70 and 0.1 mg/kg.
